Experiments:
[1] = molecular target: Muscarinic acetylcholine receptor M2 (Homo sapiens) (UniProt P08172); test: Inhibition of M2 receptor (unknown origin) at 10 uM relative to control
[2] = molecular target: Protein polybromo-1 (Homo sapiens) (UniProt Q86U86); details: dose 10.0 µM
Peregrin (Homo sapiens) [3] = molecular target: T1, Peregrin (Homo sapiens) (UniProt P55201); test: Binding affinity to […] (unknown origin) assessed as change in entropy at 17 uM by Isothermal titration calorimetry
T1 sequence (whole entry): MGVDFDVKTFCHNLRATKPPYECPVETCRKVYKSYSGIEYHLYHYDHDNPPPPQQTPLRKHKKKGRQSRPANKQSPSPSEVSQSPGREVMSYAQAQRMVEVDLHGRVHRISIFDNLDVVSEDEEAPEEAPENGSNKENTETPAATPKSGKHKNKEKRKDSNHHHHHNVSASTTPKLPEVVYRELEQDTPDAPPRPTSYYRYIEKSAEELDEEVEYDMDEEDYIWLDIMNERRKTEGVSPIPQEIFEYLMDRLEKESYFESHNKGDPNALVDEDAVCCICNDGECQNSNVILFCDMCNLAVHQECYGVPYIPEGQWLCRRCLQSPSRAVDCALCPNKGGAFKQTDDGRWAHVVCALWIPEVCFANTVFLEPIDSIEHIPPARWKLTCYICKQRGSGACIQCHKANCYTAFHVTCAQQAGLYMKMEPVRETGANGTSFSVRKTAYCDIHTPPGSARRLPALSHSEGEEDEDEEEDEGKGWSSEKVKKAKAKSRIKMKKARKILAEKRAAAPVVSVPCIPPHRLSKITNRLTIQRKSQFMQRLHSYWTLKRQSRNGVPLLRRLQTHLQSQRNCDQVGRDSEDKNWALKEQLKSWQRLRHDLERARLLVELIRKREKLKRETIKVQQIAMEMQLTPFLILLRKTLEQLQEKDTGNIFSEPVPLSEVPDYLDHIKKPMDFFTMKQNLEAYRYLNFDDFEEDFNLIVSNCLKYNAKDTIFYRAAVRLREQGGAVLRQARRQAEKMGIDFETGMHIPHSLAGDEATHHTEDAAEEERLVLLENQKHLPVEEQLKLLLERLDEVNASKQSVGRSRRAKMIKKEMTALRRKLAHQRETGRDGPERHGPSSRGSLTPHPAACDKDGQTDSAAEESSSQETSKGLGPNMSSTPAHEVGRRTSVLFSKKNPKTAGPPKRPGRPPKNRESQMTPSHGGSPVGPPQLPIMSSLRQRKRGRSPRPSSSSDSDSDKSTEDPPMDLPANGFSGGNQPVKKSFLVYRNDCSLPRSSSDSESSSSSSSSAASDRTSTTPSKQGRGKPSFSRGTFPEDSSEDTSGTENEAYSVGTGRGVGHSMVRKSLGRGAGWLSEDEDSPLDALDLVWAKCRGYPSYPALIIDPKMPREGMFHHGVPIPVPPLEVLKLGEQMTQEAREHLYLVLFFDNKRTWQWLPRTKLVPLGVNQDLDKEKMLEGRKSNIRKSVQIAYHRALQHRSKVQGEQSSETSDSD

[4] = molecular target: Histamine H1 receptor (Homo sapiens) (UniProt P35367); test: Binding affinity to H1 receptor (unknown origin) assessed as specific binding at 10 uM relative to control
Sequence of Histamine H1 receptor (Homo sapiens) (P35367 whole entry): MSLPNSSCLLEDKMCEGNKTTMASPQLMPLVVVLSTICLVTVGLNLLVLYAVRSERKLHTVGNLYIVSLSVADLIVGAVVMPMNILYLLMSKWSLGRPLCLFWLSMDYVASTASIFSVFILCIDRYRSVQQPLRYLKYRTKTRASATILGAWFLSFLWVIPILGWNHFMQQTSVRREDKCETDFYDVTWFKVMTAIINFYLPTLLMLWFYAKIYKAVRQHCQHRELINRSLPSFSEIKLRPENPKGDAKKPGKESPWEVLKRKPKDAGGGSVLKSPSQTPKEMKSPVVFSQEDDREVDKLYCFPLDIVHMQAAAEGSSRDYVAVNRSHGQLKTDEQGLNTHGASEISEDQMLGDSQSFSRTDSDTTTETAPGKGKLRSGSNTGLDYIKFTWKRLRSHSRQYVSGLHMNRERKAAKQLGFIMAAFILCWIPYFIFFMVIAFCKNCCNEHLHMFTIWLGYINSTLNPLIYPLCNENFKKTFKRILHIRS

[5] = molecular target: Beta-2 adrenergic receptor (Homo sapiens) (UniProt P07550); test: Inhibition of Beta2 (unknown origin) at 10 uM relative to control
Sequence of Beta-2 adrenergic receptor (Homo sapiens) (P07550 whole entry, looked up): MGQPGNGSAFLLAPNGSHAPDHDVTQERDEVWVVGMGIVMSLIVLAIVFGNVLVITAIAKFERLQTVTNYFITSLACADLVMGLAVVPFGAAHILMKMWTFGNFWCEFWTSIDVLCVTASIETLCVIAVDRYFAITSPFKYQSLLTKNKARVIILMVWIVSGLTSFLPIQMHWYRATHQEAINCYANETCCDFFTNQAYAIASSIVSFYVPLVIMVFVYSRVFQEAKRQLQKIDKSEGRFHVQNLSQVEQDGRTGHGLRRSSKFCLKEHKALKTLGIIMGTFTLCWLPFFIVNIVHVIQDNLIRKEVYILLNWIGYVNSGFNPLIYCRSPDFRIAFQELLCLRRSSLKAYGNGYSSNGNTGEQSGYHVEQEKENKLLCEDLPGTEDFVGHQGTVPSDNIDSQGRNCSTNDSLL

[6] = molecular target: 5-hydroxytryptamine receptor 6 (Homo sapiens) (UniProt P50406); test: Binding affinity to 5HT6 (unknown origin) assessed as specific binding at 10 uM relative to control
Sequence of 5-hydroxytryptamine receptor 6 (Homo sapiens) (P50406 whole entry): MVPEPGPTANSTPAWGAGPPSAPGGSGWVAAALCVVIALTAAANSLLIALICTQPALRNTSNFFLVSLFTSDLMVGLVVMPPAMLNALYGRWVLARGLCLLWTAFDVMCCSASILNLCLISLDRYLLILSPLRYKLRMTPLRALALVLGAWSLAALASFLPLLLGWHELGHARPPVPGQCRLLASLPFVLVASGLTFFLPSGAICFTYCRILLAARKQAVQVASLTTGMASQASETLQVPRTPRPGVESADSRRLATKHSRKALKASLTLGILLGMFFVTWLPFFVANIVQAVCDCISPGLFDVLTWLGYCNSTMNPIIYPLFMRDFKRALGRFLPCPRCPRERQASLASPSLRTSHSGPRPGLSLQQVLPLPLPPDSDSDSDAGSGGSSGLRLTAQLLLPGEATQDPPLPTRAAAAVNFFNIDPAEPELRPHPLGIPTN

[7] = molecular target: Transcription intermediary factor 1-alpha (Homo sapiens, UniProt O15164)
[8] = molecular target: Bromodomain testis-specific protein (Homo sapiens) (UniProt Q58F21); details: dose 10.0 µM
[9] = molecular target: Bromodomain adjacent to zinc finger domain protein 1A (Homo sapiens) (UniProt Q9NRL2); details: dose 10.0 µM
Sequence of Bromodomain adjacent to zinc finger domain protein 1A (Homo sapiens) (Q9NRL2 whole entry, the tested form may be a part): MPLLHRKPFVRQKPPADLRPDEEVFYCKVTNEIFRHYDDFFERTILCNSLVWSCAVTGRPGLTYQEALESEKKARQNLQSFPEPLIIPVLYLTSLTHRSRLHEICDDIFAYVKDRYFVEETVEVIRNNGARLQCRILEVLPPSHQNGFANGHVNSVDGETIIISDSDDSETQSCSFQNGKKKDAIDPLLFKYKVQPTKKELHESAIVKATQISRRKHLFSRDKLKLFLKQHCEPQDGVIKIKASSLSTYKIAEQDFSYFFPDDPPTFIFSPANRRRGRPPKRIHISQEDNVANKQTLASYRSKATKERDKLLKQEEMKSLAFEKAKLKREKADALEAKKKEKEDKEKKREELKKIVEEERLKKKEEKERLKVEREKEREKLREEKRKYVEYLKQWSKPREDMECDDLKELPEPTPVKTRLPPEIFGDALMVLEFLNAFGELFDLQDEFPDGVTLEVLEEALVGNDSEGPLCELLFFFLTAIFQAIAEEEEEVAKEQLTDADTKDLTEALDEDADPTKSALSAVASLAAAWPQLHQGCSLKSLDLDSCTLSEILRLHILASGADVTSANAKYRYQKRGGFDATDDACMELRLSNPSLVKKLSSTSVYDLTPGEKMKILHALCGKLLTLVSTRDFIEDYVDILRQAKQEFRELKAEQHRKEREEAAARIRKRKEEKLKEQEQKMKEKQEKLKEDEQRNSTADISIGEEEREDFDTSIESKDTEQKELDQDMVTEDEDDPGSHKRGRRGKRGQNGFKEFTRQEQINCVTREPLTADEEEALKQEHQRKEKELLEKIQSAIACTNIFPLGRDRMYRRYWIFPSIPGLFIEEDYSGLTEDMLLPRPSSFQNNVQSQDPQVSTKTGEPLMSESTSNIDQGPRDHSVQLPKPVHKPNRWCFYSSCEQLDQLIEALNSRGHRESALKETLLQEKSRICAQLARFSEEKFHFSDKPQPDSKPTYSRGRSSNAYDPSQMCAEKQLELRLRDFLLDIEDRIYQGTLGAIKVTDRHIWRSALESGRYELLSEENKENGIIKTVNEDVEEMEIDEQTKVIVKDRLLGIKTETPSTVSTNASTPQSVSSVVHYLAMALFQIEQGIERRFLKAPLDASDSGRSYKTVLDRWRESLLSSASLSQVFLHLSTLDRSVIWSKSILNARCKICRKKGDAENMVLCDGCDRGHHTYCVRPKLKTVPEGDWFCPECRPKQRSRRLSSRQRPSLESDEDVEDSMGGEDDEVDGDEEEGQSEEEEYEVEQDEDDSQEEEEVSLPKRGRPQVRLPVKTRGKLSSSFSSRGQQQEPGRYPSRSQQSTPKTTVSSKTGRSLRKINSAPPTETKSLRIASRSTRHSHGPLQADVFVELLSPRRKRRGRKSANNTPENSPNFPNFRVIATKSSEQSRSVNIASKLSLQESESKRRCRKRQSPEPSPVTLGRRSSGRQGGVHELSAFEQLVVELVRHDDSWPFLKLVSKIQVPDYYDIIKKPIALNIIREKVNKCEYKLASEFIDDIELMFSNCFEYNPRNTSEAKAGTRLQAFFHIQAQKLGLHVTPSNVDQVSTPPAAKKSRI

[10] = molecular target: Histone acetyltransferase KAT2A (Homo sapiens) (UniProt Q92830); details: dose 10.0 µM
Peregrin (Homo sapiens) [11] = molecular target: T1, Peregrin (Homo sapiens); test: Binding affinity to […] (unknown origin) assessed as change in enthalpy at 17 uM by Isothermal titration calorimetry
[12] = molecular target: Bromodomain and WD repeat-containing protein 1 (Homo sapiens) (UniProt Q9NSI6); details: dose 10.0 µM
[13] = molecular target: Protein polybromo-1 (Homo sapiens) (UniProt Q86U86); details: dose 10.0 µM; remark: listed apart in the source

Sequence of Protein polybromo-1 (Homo sapiens) (Q86U86 whole entry): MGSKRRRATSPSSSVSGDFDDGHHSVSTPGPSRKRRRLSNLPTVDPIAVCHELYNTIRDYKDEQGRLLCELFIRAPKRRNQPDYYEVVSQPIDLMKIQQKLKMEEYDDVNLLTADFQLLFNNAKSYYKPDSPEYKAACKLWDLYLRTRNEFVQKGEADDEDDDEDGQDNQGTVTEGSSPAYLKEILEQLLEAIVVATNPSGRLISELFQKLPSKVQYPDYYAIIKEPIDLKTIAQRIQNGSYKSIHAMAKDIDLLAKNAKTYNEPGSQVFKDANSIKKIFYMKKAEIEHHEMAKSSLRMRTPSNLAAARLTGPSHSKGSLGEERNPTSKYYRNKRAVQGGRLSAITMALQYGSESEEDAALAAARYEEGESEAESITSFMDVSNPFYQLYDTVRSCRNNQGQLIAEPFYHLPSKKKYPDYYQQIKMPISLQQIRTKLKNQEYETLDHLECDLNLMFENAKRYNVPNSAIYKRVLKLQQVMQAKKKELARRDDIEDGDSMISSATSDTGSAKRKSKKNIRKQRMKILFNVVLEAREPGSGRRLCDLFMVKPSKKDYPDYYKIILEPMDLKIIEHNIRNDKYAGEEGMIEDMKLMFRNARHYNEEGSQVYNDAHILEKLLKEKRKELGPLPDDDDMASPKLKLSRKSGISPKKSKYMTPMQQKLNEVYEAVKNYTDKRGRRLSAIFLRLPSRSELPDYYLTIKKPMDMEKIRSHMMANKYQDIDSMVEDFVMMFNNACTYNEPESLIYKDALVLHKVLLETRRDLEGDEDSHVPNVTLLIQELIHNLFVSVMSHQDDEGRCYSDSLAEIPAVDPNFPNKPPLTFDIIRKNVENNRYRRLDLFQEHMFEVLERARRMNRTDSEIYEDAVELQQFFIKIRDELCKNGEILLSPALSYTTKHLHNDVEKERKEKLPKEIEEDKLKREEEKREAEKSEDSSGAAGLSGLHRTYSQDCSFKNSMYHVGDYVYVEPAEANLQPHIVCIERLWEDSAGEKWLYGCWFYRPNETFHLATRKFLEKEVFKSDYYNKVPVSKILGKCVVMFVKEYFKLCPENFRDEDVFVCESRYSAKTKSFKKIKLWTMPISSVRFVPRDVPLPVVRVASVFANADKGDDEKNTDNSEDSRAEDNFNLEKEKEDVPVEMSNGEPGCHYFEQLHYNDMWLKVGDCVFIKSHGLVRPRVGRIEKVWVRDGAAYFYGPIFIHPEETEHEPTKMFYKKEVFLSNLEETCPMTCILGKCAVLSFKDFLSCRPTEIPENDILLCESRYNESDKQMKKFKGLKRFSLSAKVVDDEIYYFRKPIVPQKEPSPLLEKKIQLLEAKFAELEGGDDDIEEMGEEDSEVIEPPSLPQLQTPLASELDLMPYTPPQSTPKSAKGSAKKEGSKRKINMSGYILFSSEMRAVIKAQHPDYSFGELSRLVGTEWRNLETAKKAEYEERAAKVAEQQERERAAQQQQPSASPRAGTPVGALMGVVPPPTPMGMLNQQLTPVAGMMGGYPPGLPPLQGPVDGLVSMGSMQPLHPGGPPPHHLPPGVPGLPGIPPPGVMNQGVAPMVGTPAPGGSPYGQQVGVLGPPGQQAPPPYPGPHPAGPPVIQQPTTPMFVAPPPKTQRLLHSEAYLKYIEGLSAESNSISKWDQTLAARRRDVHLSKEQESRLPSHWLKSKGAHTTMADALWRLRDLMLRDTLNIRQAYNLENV
Sequence of Muscarinic acetylcholine receptor M2 (Homo sapiens) (P08172 whole entry): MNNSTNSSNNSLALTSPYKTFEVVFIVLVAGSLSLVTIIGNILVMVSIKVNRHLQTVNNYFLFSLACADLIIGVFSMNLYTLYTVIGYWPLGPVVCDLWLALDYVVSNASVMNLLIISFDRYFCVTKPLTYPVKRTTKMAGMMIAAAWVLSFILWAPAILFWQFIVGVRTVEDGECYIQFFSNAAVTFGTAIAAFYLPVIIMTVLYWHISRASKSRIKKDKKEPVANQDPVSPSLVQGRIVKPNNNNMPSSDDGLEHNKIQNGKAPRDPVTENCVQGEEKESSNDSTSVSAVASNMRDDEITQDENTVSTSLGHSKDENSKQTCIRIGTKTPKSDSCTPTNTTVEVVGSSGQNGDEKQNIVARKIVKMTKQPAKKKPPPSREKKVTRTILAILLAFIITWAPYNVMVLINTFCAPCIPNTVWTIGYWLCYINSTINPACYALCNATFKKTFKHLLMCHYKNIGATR

- inhibition [1]: 9%
- ΔTm [2]: 0.4 °C
- deltaS (Peregrin (Homo sapiens) [3]): -0.012 kcal/mol/K
- Activity [4]: 96.8%
- inhibition [5]: 8%
- Activity [6]: 49.9%
- IC50 [7]: > 10 µM
- ΔTm [8]: 0.8 °C
- ΔTm [9]: 0.15 °C
- ΔTm [10]: -0.4 °C
- deltaH (Peregrin (Homo sapiens) [11]): -12.6 kcal/mol
- ΔTm [12]: 1 °C
- ΔTm [13]: 0.2 °C
Compound: COc1cc2c(cc1NS(=O)(=O)c1ccc(Br)cc1C)n(C)c(=O)n2C

From ChEMBL document CHEMBL5715956, “Selective Targeting of Bromodomains of the Bromodomain-PHD Fingers Family Impairs Osteoclast Differentiation” (ACS Chem Biol, 2017)
